Experimental data reported in patent US20250281629A1, “COMPOSITIONS AND METHODS FOR ANTI-PHOSPHOCHOLINE ACTIVE IMMUNOTHERAPY” (Duke University, priority 2022, published 2025).
Where no end group is shown, it is not given here.

Columns and labels:
C57BL/6 mice = test: Serum anti-PC antibody responses of immunized mice via ELISA (PC-BSA coated); format: in vivo, mouse; conditions: 10% Cys4-Q11 added to PC-Q11 or PCM-Q11 nanofibers; i.p.
Method: Mice and Immunizations. Female C57BL/6 mice (Envigo) age 6-10 weeks were used to initiate experiments except for the Il10^−/− colitis study where female B6.129P2-Il10^tm1Cgn/J (The Jackson Laboratory) mice age 5-7 weeks were used. While female mice were used for most experiments, age-matched male C57BL/6 mice (Envigo) were used in a one cycle acute DSS colitis model to confirm efficacy across sexes. Mice were housed at Duke University. All experimental procedures were performed on protocols (A264-18-11 and A199-21-09) approved by the Duke University Institutional Animal Care and Use Committee (IACUC). For subcutaneous immunizations, anesthetized mice were injected once behind each shoulder with 50 μL of 2 mM peptide nanofiber solution or 1×PBS. For intraperitoneal immunizations, mice were injected with 100 μL of 2 mM peptide nanofiber solution or 1×PBS. Nanofiber immunizations with adjuvant contained 10 μg CpG (ODN 1826, IAX-200-002-3001, Innaxon). For injections of only CpG, 10 μg of CpG in 100 μL 1×PBS was used. Mice were typically given three immunizations, with the specific boosting schedules stated in each figure caption, usually at weeks 0, 2, and 4, as this was determined to produce robust antibody responses in a short time frame.
Detection of Anti-PC Antibody Responses via ELISA. Anti-PC antibody responses in serum collected from the submandibular vein in mice were measured using ELISA. Briefly, plates were coated with 20 μg/mL PC-BSA (Biosearch Technologies, PC-1011-10) in 1×PBS or just 1×PBS at 4° C. overnight. The next day, the plates were washed using 1×PBST (1×PBS with 0.05% Tween 20) and then blocked three times with Superblock blocking buffer solution (Thermo Fisher, 37515). Serum diluted from 1:10^2 to 1:10^5 in 1% BSA in 1×PBST was the added to the plate and allowed to incubate for 2 h at room temperature. Anti-PC IgG was detected using HRP-conjugated Fcγ fragment-specific goat anti-mouse IgG (Jackson Immuno Research, 15-035-071). IgG subclasses and IgM anti-PC antibodies were detected using Southern Biotech HRP-conjugated goat anti-mouse antibodies (IgG1, IgG2b, IgG2c, IgG3, & IgM: 5300-05B). Area under the curve (AUC) measurements were calculated using background-subtracted absorbance values at dilutions from 1:10^2 to 1:10^5. Antibody titers were defined using an absorbance cutoff above background of 0.2 OD, where titer 2 represents an OD value greater than 0.2 at 1:10^2 dilution and so on up to titer 5 at 1:10^5 dilution.

[1] = test system: mouse anti-PC IgM monoclonal antibody (Clone: BH8); test: ELISA for measuring nanofiber epitope reactivity; format: binding; conditions: nanofibers coated at 0.2 mM; PC-BSA positive control
Method: ELISA for Measuring Nanofiber Epitope Reactivity. The reactivity of PC conjugation methods was determined via binding of a mouse anti-PC IgM monoclonal antibody (Clone: BH8) (Sigma, MABF2084) to nanofibers. Nanofibers were diluted to 0.2 mM and coated onto 96-well plates at 4° C. overnight. PC-BSA (Biosearch Technologies, PC-1011-10) was coated at 20 μg/mL in 1×PBS overnight as a positive control, and PBS was used as a negative control. The next day, the plates were washed using 1×PBS with 0.05% Tween 20 (1×PBST) and then blocked with Superblock blocking buffer solution (Thermo Fisher, 37515) three times. This was followed by the addition anti-PC IgM which was serially diluted in 1% BSA in 1×PBST by 5-fold steps beginning from 1:100 (5 μg/mL) and allowed to incubate for 2 h at room temperature. Anti-PC IgM bound to nanofibers was then detected with HRP-conjugated goat anti-mouse IgM (Southern Biotech, 1021-05) and the absorbance values at 450 nm were measured.

B1a cells (CD19+CD5+) = test: Nanofiber uptake in i.p. lavage cells, flow cytometry: B1a cells; format: in vivo, mouse; conditions: 4 hours after i.p. injection
Method: (§1) Nanofiber Uptake and Evaluation. The cell types present and their propensity to uptake nanofibers in the i.p. space was tested by injecting mice i.p. with 100 μL of 2 mM TAMRA-labeled fluorescent nanofibers. 4 hours later, mice were euthanized and i.p. lavage was conducted via the injection of 2 mL of cold 1×PBS into the peritoneal cavity and massaging the abdomen for 30 seconds. The solution was then carefully extracted from the i.p. space and the cells were isolated followed by rinsing with ice cold flow buffer (2% heat-inactivated FBS in 1×PBS). The cells present were treated with mouse BD Fc Block (Clone: 2.4G2) (BD Biosciences, 553142) in flow buffer on ice for 30 min and then washed and stained with antibodies against the following markers: CD5-APC (Clone: 53-7.3) (BioLegend, 100626), F4/80-PerCP/Cy5.5 (Clone: BM8) (BioLegend, 123128), CD19-APC/Cy7 (Clone: 6D5) (BioLegend, 115530), CD11c-PE/Cy7 (Clone: N418) (BioLegend, 117318), and CD86-BV605 (Clone: GL1) (BD Biosciences, 2272591) in flow buffer for 30 min on ice. TAMRA-fluorescence as an indication of nanofiber uptake was measured on the PE channel. Cells were then washed in flow buffer and stained with DAPI. Flow cytometry was conducted on a BD FACSCanto II cytometer and the results were analyzed using FlowJo software.

macrophages (F4/80+) = test: Nanofiber uptake in i.p. lavage cells, flow cytometry: macrophages; format: in vivo, mouse; conditions: 4 hours after i.p. injection of TAMRA-labeled nanofibers
Method: as §1

[2] = Zeta potential of nanofibers; format: physicochemical; conditions: 1 mM conjugate coassembled with 1 mM Q11; 0.2 mM in 1×PBS, 25° C.
Method: Zeta Potential. Nanofibers were diluted to 0.2 mM in 1×PBS and zeta potential measurements were conducted at 25° C. using an Anton Paar Litesizer 500.

Substance	effect of extra cysteines on anti-PC antibody responses (C57BL/6 mice)	binding of anti-PC mAb to nanofibers [1]	CD86 activation marker on TAMRA+ B1a cells vs non-B1a cells (B1a cells (CD19+CD5+))	macrophages staining positively for nanofibers (macrophages (F4/80+))	zeta potential (surface charge) of nanofibers [2]
CCCCSGSG-QQKFQFQFEQQ-NH2 (CCCCSGSGQQKFQFQFEQQ-NH2; cysteine pairing not given here) [Cys4-Q11]	did not significantly enhance or reduce the anti-PC antibody responses	–	–	–	–
AC-QQKFQFQFEQQ-NH2 (Ac-QQKFQFQFEQQ-NH2) [Q11]	–	not	not seen	almost all macrophages staining positively for nanofibers	–
C5H14NO4P-SGSG-QQKFQFQFEQQ-NH2 (C5H14NO4P-SGSGQQKFQFQFEQQ-NH2) [pa-PC-Q11, phosphoramidate-linked PC-Q11]	–	not	–	–	positively charged
